Values of other authors as cited in US12655468B2, “Genetic predictors of a response to treatment with CRHR1 antagonists” (HMNC Holding GmbH, priority 2015, dated 2026).

Tested on: mice overexpressing CRH in the forebrain

SMILES: COCC(COC)Nc1nc(C)nc2c(-c3ccc(Cl)cc3Cl)c(C)nn12 [DMP696]
- effect on increased REM sleep: could reverse the REM enhancement
